# Test results from patent US20200109429A1, “Methods and Systems for Cell-Free Biodiscovery of Natural Products” (Synvitrobio, Inc., priority 2017, published 2020).
# Read-outs that look alike come from different tables or passages of the source. Where a SMILES comes first, the peptide text is derived from it. Bridges are numbered along the chain shown (N, C = ends).
# Key:
# [1] = 121 C for 10 min heat step; cited from earlier work
# E. coli RNA polymerase [2] = molecular target: T1, E. coli RNA polymerase (Escherichia coli, UniProt P0A8T7+P0A8V2); format: biochemical; design: endogenous in cells; host or cells: E. coli cell-free lysate (extract eZS6 or eAC15, prepared per Sun et al. 2013); details: lasso cluster co-expressed with sigma70 GFP reporter in E. coli cell-free system
# Method: All reactions contain 40019 in plasmid form at 2.66 nM, and the reaction is done in E. coli extract “eZS6” at 25% lysate, 75% buffer concentration, prepared as listed in (Sun et al., 2013) or “eAC15” at 30% lysate, 70% buffer concentration. GFP concentration was kept at 2 nM, and the other components kept at a total of 6 nM to control for competition affects.
# These are run in a E. coli-based cell-free lysate system in different concentrations, as listed by nM concentrations described in the chart, with all reactions containing 4 nM sigma70-UTR1-GFP and 3.5 μM gamS to protect linear templates.
# Our expression system incorporates these coding sequences individually with a sigma70 promoter, UTR and terminator. […] A GFP construct (40019 in linear) was assembled in the same way. Linear DNAs were generated either by PCR amplification from plasmid or the DNA assemblies themselves. We used 3.5 μM GamS to prevent template degradation in E. coli lysate. Reactions were run at 10 μl scale in a 384-well format. The reaction is done in E. coli extract “eZS6” at 25% lysate, 75% buffer concentration, prepared as listed in (Sun et al., 2013). Timecourses of GFP intensity were taken, and 12 hr endpoints were used to generate the heatmap. GFP intensity of lasso-cluster-containing reaction was normalized to their paired negative controls.
# We expressed our GFP construct in the same reactions as our lasso constructs. GFP (4009 in linear) was expressed at 4 nM and the lasso cluster genes at 0.6 nM.
# E. coli [3] = details: cited from earlier work
# E. coli [4] = format: cell-based; details: purified microcin J25 added to cellular reactions, E. coli cell death
# Method: (A) Cell-free assay of mccj25 activity. […] (B) Inhibition of E. coli in vivo growth by purified microcin J25. Data, final concentrations.
# It is seen in FIG. 7B that adding purified microcin J25 to cellular reactions causes cell death with a MIC of 0.1 uM. If microcin J25 produced in cell-free systems is at high enough concentration, those skilled in the art will recognize that the MIC curve for killing live E. coli will be the similar. However, avoiding phage in the reaction is essential to ensure that the MIC is accurate and not caused by propogation of infecting phage carried over in a typical cell-free reaction that is contaminated with phage.
# Salmonella = details: mouse models; cited from earlier work
# E. coli RNA polymerase [5] = molecular target: T1, E. coli RNA polymerase; details: has been shown previously; cited from earlier work
# [6] = format: in vitro ADME, E. coli
# Method: Linear constructs were expressed in 10 μl cell free reactions with 2% flurotect (a tRNA carrying a BODIPY labelled lysine) and 8 nM DNA constructs for MBP-A or MBP (1065, 1066). 2 μl of these reactions were prepared in 20 μl sample buffer (50 mM bis-Tris, 2% SDS, 10% glycerol) and run on a 4-12% bis-tris PAGE gel (ThermoFisher Scientific) at 200V for 20 min.
# To stabilize mcjA, the peptide can be tagged either on the N terminus or the C terminus as a fusion protein that provides a stable domain that prevents proteolysis of mcjA. A linker and/or targeting region can be added to remove the tag. In an example, we tag mcjA with a maltose binding protein (MBP), generating a construct 1065 (SEQ ID NO.: 19) and compare the expression of 1065 to a wildtype MBP, 1066 (SEQ ID NO.: 20). In a SDS-PAGE gel expressing both constructs in FIG. 18, the expressed fusion protein was stable and easily visualized on a gel.
# T1 sequence (P0A7Z4 whole entry): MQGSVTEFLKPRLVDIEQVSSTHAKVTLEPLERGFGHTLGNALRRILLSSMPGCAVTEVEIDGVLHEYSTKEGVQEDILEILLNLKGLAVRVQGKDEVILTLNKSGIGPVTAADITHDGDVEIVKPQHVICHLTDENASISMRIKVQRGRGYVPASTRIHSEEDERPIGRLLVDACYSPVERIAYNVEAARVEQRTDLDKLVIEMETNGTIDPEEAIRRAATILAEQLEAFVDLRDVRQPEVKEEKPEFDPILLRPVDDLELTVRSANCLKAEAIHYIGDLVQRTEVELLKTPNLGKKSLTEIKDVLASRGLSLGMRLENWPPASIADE
# T1 sequence (P0A8V2 whole entry): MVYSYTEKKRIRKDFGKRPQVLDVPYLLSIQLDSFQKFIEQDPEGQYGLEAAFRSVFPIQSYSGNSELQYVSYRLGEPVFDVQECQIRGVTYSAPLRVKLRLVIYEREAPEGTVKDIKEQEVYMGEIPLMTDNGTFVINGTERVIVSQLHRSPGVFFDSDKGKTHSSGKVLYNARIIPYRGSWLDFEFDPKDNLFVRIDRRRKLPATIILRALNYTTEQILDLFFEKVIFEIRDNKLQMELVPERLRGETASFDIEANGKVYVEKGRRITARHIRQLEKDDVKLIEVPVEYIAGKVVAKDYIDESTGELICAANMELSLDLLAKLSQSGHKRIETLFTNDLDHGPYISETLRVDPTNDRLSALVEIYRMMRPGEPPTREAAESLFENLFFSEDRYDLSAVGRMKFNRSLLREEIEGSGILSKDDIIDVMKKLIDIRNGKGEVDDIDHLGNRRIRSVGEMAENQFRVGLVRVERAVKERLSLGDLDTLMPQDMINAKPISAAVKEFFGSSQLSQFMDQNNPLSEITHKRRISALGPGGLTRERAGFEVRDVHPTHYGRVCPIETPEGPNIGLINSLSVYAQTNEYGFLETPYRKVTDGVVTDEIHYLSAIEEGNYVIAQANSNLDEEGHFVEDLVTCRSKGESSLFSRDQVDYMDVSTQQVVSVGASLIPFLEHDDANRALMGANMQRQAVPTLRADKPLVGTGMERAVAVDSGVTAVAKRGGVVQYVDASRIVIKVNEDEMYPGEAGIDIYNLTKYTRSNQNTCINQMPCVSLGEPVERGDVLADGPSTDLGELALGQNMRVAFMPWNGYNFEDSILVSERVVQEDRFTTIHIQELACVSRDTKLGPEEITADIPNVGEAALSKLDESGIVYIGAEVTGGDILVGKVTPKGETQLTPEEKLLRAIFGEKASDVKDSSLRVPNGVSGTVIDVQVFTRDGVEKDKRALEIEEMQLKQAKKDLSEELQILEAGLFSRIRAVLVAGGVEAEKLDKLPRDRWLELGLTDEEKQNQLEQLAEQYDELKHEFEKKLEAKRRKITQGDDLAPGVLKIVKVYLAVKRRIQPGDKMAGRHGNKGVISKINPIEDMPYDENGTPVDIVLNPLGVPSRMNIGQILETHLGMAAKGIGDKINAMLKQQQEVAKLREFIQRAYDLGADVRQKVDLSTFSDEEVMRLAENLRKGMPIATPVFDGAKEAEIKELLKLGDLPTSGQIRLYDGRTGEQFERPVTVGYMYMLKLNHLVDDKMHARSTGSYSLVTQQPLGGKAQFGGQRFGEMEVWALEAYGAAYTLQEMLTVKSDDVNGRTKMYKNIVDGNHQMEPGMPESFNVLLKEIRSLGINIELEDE
# T1 sequence (P00579 whole entry, further chain): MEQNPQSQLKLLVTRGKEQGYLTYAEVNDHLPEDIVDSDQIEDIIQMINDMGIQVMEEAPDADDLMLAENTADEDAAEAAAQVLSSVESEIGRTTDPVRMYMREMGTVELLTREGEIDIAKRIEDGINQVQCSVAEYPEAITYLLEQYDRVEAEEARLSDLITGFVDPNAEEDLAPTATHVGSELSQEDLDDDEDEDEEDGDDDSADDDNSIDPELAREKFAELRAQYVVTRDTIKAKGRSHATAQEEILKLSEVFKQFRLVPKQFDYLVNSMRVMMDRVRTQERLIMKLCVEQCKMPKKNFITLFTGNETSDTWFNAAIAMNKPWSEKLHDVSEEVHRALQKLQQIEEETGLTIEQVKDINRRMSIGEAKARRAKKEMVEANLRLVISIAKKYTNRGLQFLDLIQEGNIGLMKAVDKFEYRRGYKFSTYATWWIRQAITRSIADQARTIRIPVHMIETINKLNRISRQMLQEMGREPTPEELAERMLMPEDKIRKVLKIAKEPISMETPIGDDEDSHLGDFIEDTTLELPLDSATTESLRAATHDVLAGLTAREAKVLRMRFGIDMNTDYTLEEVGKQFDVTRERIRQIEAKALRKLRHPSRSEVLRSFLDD
# T1 sequence (P0A8T7 whole entry): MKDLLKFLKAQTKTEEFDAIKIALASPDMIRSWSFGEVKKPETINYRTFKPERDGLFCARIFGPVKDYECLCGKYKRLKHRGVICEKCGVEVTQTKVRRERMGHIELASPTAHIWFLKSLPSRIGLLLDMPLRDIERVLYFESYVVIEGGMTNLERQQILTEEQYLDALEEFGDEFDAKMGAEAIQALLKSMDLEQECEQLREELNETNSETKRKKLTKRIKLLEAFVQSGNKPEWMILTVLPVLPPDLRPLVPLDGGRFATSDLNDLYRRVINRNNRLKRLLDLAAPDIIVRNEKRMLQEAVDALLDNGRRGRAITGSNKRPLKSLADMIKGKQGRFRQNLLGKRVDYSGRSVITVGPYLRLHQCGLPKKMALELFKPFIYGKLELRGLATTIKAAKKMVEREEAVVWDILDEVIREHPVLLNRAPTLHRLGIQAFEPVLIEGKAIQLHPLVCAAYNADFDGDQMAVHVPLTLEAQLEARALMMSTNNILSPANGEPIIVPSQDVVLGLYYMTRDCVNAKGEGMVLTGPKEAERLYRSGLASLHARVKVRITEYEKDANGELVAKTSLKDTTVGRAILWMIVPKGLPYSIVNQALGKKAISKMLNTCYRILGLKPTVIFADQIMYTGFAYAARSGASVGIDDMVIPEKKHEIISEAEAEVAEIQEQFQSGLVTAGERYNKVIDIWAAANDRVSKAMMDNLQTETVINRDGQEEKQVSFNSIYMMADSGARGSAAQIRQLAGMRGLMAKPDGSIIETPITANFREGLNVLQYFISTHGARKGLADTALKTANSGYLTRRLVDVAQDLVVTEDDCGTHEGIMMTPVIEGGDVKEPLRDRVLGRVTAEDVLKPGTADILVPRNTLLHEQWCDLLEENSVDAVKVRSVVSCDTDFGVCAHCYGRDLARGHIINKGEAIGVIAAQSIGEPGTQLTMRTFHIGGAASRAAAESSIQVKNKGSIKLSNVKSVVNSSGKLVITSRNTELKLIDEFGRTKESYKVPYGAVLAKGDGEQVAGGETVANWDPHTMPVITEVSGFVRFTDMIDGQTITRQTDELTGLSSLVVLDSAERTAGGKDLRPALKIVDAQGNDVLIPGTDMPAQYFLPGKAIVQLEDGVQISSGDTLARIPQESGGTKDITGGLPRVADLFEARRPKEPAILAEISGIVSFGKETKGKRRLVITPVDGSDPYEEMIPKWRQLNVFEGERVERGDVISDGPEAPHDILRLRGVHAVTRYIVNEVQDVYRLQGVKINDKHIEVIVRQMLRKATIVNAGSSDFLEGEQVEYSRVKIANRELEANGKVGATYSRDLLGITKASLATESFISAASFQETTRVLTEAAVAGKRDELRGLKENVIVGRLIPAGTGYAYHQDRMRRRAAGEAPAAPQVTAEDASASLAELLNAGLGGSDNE
# T1 sequence (P0A800 whole entry, further chain): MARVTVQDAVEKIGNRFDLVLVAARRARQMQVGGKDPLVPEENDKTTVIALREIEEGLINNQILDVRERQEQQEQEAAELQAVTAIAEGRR
compound,measurement,setting,value
CC[C@H](C)[C@H](NC(=O)CNC(=O)[C@@H](NC(=O)[C@H](Cc1ccccc1)NC(=O)[C@H](Cc1ccc(O)cc1)NC(=O)[C@@H]1CCC(=O)NCC(=O)NCC(=O)N[C@@H](C)C(=O)NCC(=O)N[C@@H](Cc2cnc[nH]2)C(=O)N[C@@H](C(C)C)C(=O)N2CCC[C@H]2C(=O)N1)C(C)C)C(=O)NCC(=O)N[C@H](C(=O)N1CCC[C@H]1C(=O)N[C@H](C(=O)N[C@@H](CO)C(=O)N[C@@H](Cc1ccccc1)C(=O)N[C@@H](Cc1ccc(O)cc1)C(=O)NCC(=O)O)[C@@H](C)CC)[C@@H](C)O [microcin J25] (GGAGHVPEYFVGIGTPISFYG-OH; lactam N-8),heat stability,[1],heat-stable
CC[C@H](C)[C@H](NC(=O)CNC(=O)[C@@H](NC(=O)[C@H](Cc1ccccc1)NC(=O)[C@H](Cc1ccc(O)cc1)NC(=O)[C@@H]1CCC(=O)NCC(=O)NCC(=O)N[C@@H](C)C(=O)NCC(=O)N[C@@H](Cc2c[nH]cn2)C(=O)N[C@@H](C(C)C)C(=O)N2CCC[C@H]2C(=O)N1)C(C)C)C(=O)NCC(=O)N[C@H](C(=O)N1CCC[C@H]1C(=O)N[C@H](C(=O)N[C@@H](CO)C(=O)N[C@@H](Cc1ccccc1)C(=O)N[C@@H](Cc1ccc(O)cc1)C(=O)NCC(=O)O)[C@@H](C)CC)[C@@H](C)O [microcin J25] (GGAGHVPEYFVGIGTPISFYG-OH; lactam N-8; C-terminus assumed),knockdown of GFP expression / native RNA polymerase,E. coli RNA polymerase [2],knocks down GFP expression
same,knockdown of GFP expression / native RNA polymerase,E. coli RNA polymerase [2]; listed as microcinJ25,functional knockdown
same,MIC,E. coli [3],0.02 µg/mL
same,MIC,E. coli [4],0.1 µM
same,decrease in Salmonella infection,Salmonella,3 fold
caulosegnin,knockdown of GFP expression / native RNA polymerase,E. coli RNA polymerase [2],no effect on GFP expression
same,RNA polymerase inhibitory activity,E. coli RNA polymerase [5],not to have RNA polymerase inhibitory activity
klebsidin,knockdown of GFP expression / native RNA polymerase,E. coli RNA polymerase [2],functional knockdown
"mcjA: peptide precursor (propeptide) of microcin J25 (MIKHFHFNKLSSGKKNNVPSPAKGVIQIKKSASQLTKGGAGHVPEYFVGIGTPISFYG; full-length; UniProt Q9X2V7 1-58, looked up)",stability when expressed in E. coli cell-free systems,[6],known to degrade
